Reference: patent US20230020329A1, “Annelated 9-hydroxy-1,8-dioxo-1,3,4,8-tetrahydro-2H-pyrido[1,2-a]pyrazine-7-carboxamides as HIV integrase inhibitors, methods of preparation and application thereof” (priority 2019, published 2023)

tested on: HIV-1 (IIIB strain); test: Anti-HIV cytoprotection assay (XTT), HIV-1 IIIB in CEM-SS cells; assay type: cell-based; conditions: Human immunodeficiency virus 1, IIIB, CEM-SS, CEM-SS cell line; read-out: Inhibitory activity (EC50) against HIV-1 (IIIB strain)
Excerpt: a) Inhibitory Activity of the Lymphocytropic Virus Strain HIV-1 (IIIB) in the CEM-SS Cell Line.
The evaluation was done by ImQuest BioSciences, Inc. (Frederick, Md., USA). CEM-SS cells [Foley G. E. et al. Continuous Culture of Human Lymphoblasts from Peripheral Blood of a Child with Acute Leukemia. Cancer 1965, 18, 522-529] obtained through the NIH AIDS Research and Reference Reagent Program (Manassas, Va., USA) were passaged in T-75 flasks prior to use cell culture medium consisting of RPMI1640 medium (Lonza; Walkersville, Md., USA) supplemented with 10% heat inactivated fetal bovine serum (Gibco; Grand Island, N.Y.), […] L-glutamine (Lonza), […] penicillin (Lonza) and […] streptomycin (Lonza) for antiviral analysis. The CEM-SS cells were kept in RPMI 140 medium supplemented with 10% heat inactivated bovine fetal serum, 2 mM glutamine, 100 U/ml penicillin, and 100 μg/ml streptomycin.
A lymphocytropic HIV-1 IIIB strain [Popovic, M. et al. Detection, isolation, and continuous production of cytopathic retroviruses (HTLV-III) from patients with AIDS and pre-AIDS. Science. 1984, 224 (4648), 497-500] was chosen for a virus to be analyzed. The virus was obtained through the NIH AIDS Research and Reference Reagents Program and grown in CEM-SS cells to produce a stock virus pool. A pre-titrated aliquot of the virus was removed from the freezer (−80° C.) and allowed to slowly thaw to room temperature in a biological safety cabinet. The virus was diluted in a tissue culture medium so that the amount of virus added in 50 μl per well was sufficient to kill 85 to 95% of the cells 6 days after infection. HIV-1 IIIB was grown and titrated in CEM-SS cells. The inhibitory effect of […] was evaluated in CEM-SS cells as described earlier [Nara, P. L. at al. Simple, rapid, quantitative, syncytium-forming microassay for the detection of human immunodeficiency virus neutralizing antibody. AIDS Res. Hum. Retroviruses 1987, 3, 283-302.] in microtiter plate anti-HIV assays to quantitatively assess the ability of a compound to inhibit HIV-induced cell death. Quantification was carried out using 2,3-bis-(2-methoxy-4-nitro-5-[…])-(2H)-tetrazolium-5-carboxanilide (XTT) tetrazolium, which is metabolized to a stained formazan product through viable […] The compounds given in Table 1 were dissolved at 10 μM in DMSO and stored at −20° C.
Test materials were evaluated using antiviral assays in triplicate in concentrations of 30 and 10 nM. The compounds shown in table 1 were dissolved at 10 μM in DMSO and stored at −20° C. […] Sixty nanomolar concentrations of each compound (2 times that of the test concentration in the well) were prepared by diluting 10 μM DMSO stock 1:100 in cell culture medium (10 μl of compound added to 990 μl of the medium) followed by 1:10 dilution (10 μl of the compound was added to 90 μl of the medium), then 6 μl was added to 994 μl of the medium; […] μl was added to a 96-well microtiter plate in triplicate to ensure efficacy and one colorimetric well. Twenty nanomolar concentrations of each compound (twice as much as the test concentration in the well) were prepared by diluting 10 μM DMSO with the original 1:100 in cell culture medium (10 μl of the compound added to 990 μl of the medium) followed by diluting […] (10 μl of the compound was added to 900 μl of the medium), then 20 μl was added to 980 μl of the medium; 100 μl was added to a 96-well microtiter plate in triplicate to ensure efficacy and one colorimetric well.
Azidothymidine (AZT) was purchased from Sigma Aldrich (USA) and evaluated as a positive control compound in an antiviral assay using a six-concentration reaction curve on each assay plate.
Test compounds were initially evaluated for HIV-1 IIIB strain in CEM-SS cells at test concentrations of 30 and 10 nM. […]

SMILES	EC50 [nM]
C[C@H]1CO[C@@H]2Cn3cc(C(=O)NCc4n[nH]c5c4CCCCC5)c(=O)c(O)c3C(=O)N12 [Compound 1.1.62, (3S,11aR)-6-hydroxy-N-(1,4,5,6,7,8-hexahydrocyclohepta[c]pyrazol-3-ylmethyl)-3-methyl-5,7-dioxo-2,3,5,7,11,11a-hexahydro[1,3]oxazolo[3,2-a]pyrido[1,2-d]pyrazine-8-carboxamide]	2 to 10
C[C@H]1CO[C@@H]2Cn3cc(C(=O)NCc4ccnc5ccccc45)c(=O)c(O)c3C(=O)N12 [Compound 1.1.65, (3S,11aR)-6-hydroxy-3-methyl-N-(quinolin-4-ylmethyl)-5,7-dioxo-2,3,5,7,11,11a-hexahydro[1,3]oxazolo[3,2-a]pyrido[1,2-d]pyrazine-8-carboxamide]	< 2
C[C@@H]1CCO[C@H]2Cn3cc(C(=O)NCc4c(F)cncc4F)c(=O)c(O)c3C(=O)N12 [Compound 1.2.4, (4R,12aS)-7-hydroxy-N-[(3,5-difluoropyridin-4-yl)methyl]-4-methyl-6,8-dioxo-3,4,6,8,12,12a-hexahydro-2H-pyrido[1′,2′:4,5]pyrazino[2,1-b][1,3]oxazine-9-carboxamide]	2 to 10
O=C(NCc1ccc(F)nc1F)c1cn2c(c(O)c1=O)C(=O)N1[C@H]3CC[C@H](C3)O[C@@H]1C2 [Compound 1.3.1, (2R,5S,13aR)-8-hydroxy-N-[(2,6-difluoropyridin-3-yl)methyl]-7,9-dioxo-2,3,4,5,7,9,13,13a-octahydro-2,5-methanopyrido[1′,2′:4,5]pyrazino[2,1-b][1,3]oxazepine-10-carboxamide]	2 to 10
O=C(NCc1c(F)cc(F)nc1F)c1cn2c(c(O)c1=O)C(=O)N1[C@H]3CC[C@H](C3)O[C@@H]1C2 [Compound 1.3.2, (2R,5S,13aR)-8-hydroxy-N-[(2,4,6-trifluoropyridin-3-yl)methyl]-7,9-dioxo-2,3,4,5,7,9,13,13a-octahydro-2,5-methanopyrido[1′,2′:4,5]pyrazino[2,1-b][1,3]oxazepine-10-carboxamide]	2 to 10
O=C(NCc1c(F)cncc1F)c1cn2c(c(O)c1=O)C(=O)N1[C@H]3CC[C@H](C3)O[C@@H]1C2 [Compound 1.3.3, (2R,5S,13aR)-8-hydroxy-N-[(3,5-difluoropyridin-4-yl)methyl]-7,9-dioxo-2,3,4,5,7,9,13,13a-octahydro-2,5-methanopyrido[1′,2′:4,5]pyrazino[2,1-b][1,3]oxazepine-10-carboxamide]	2 to 10

The next lines start with the values.

EC50 [nM]	SMILES
> 30	C[C@H]1CO[C@@H]2Cn3cc(C(=O)NCc4nnc5n4CCCC5)c(=O)c(O)c3C(=O)N12 [Compound 1.1.61, (3S,11aR)-6-hydroxy-3-methyl-N-(5,6,7,8-tetrahydro[1,2,4]triazolo[4,3-a]pyridin-3-ylmethyl)-5,7-dioxo-2,3,5,7,11,11a-hexahydro[1,3]oxazolo[3,2-a]pyrido[1,2-d]pyrazine-8-carboxamide]
> 30	C[C@H]1CO[C@@H]2Cn3cc(C(=O)NCc4nc5c(s4)CCCCC5)c(=O)c(O)c3C(=O)N12 [Compound 1.1.63, (3S,11aR)-6-hydroxy-3-methyl-5,7-dioxo-N-(5,6,7,8-tetrahydro-4H-cyclohepta[d][1,3]thiazol-2-ylmethyl)-2,3,5,7,11,11a-hexahydro[1,3]oxazolo[3,2-a]pyrido[1,2-d]pyrazine-8-carboxamide]
> 30	Cc1nc2cc(CNC(=O)c3cn4c(c(O)c3=O)C(=O)N3[C@@H](C)CO[C@@H]3C4)ccc2n1C [Compound 1.1.64, (3S,11aR)-6-hydroxy-3-methyl-N-[(1,2-dimethyl-1H-benzimidazol-5-yl)methyl]-5,7-dioxo-2,3,5,7,11,11a-hexahydro[1,3]oxazolo[3,2-a]pyrido[1,2-d]pyrazine-8-carboxamide]
2 to 10	C[C@@H]1CCO[C@H]2Cn3cc(C(=O)NCc4c(F)cc(F)nc4F)c(=O)c(O)c3C(=O)N12 [Compound 1.2.3, (4R,12aS)-7-hydroxy-4-methyl-N-[(2,4.6-trifluoropyridin-3-yl)methyl]-6,8-dioxo-3,4,6,8,12,12a-hexahydro-2H-pyrido[1′,2′:4,5]pyrazino[2,1-b][1,3]oxazine-9-carboxamide]
